≈ marks a conversion by molar mass, not a printed value. Read-outs that look alike come from different tables or passages of the source.
Experiments:
[1] = tested on: E. coli ATCC 35218; format: cell-based
How it was run: (§1)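 MICs determined by 2:1 serial broth microdilution in cation-adjusted Mueller-Hinton broth per CLSI M7-A6, using inoculum at 1 x 10^6 CFU/mL mixed 1:1 with peptoid solution. Three independent replicates, each with two parallel trials.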

[2] = tested on: B. subtilis ATCC 6633; format: cell-based
How it was run: as §1

[3] = tested on: E. faecium T62764 (VRE); experiment: microbe, parasite or virus in culture; settings: E. faecium T62764 (VRE)
How it was run: (§2)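 Modified broth microdilution in Mueller Hinton medium, polypropylene plates; agents serially diluted in 0.01% acetic acid with 0.2% BSA. Inoculum 2–7 x 10^5 CFU/mL from overnight culture, incubated overnight at 37°C. MIC taken as lowest concentration with no visible growth.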

[4] = tested on: P. aeruginosa 198 (MDR); experiment: microbe, parasite or virus in culture; settings: P. aeruginosa 198 (MDR)
How it was run: as §2

[5] = tested on: P. maltophilia ATCC13637; experiment: microbe, parasite or virus in culture; settings: P. maltophilia ATCC13637
How it was run: as §2

[6] = tested on: E. faecalis ATCC29212; experiment: microbe, parasite or virus in culture; settings: E. faecalis ATCC29212
How it was run: as §2

[7] = tested on: P. aeruginosa LES400 (MDR); experiment: microbe, parasite or virus in culture; settings: P. aeruginosa LES400 (MDR)
How it was run: as §2

[8] = tested on: K. pneumonia 61962 (ESBL); experiment: microbe, parasite or virus in culture; settings: K. pneumonia 61962 (ESBL)
How it was run: as §2

[9] = tested on: K. pneumonia 63575 (ESBL); experiment: microbe, parasite or virus in culture; settings: K. pneumonia 63575 (ESBL)
How it was run: as §2

[10] = tested on: P. aeruginosa H1027 (MDR); experiment: microbe, parasite or virus in culture; settings: P. aeruginosa H1027 (MDR)
How it was run: as §2

[11] = tested on: S. aureus C623 (MRSA); experiment: microbe, parasite or virus in culture; settings: S. aureus C623 (MRSA)
How it was run: as §2

[12] = tested on: E. faecium mic80 (VRE); experiment: microbe, parasite or virus in culture; settings: E. faecium mic80 (VRE)
How it was run: as §2

[13] = tested on: E. cloacae 218R Class C β-lactamase; experiment: microbe, parasite or virus in culture; settings: E. cloacae 218R Class C β-lactamase
How it was run: as §2

[14] = tested on: E. coli 63103 (ESBL); experiment: microbe, parasite or virus in culture; settings: E. coli 63103 (ESBL)
How it was run: as §2

[15] = tested on: E. faecalis F43559 (VRE); experiment: microbe, parasite or virus in culture; settings: E. faecalis F43559 (VRE)
How it was run: as §2

[16] = tested on: E. faecalis W61950 (VRE); experiment: microbe, parasite or virus in culture; settings: E. faecalis W61950 (VRE)
How it was run: as §2

[17] = tested on: P. aeruginosa 213 (MDR); experiment: microbe, parasite or virus in culture; settings: P. aeruginosa 213 (MDR)
How it was run: as §2

[18] = tested on: S. aureus ATCC25923; experiment: microbe, parasite or virus in culture; settings: S. aureus ATCC25923
How it was run: as §2

[19] = tested on: E. coli 64771 (ESBL); experiment: microbe, parasite or virus in culture; settings: E. coli 64771 (ESBL)
How it was run: as §2

[20] = tested on: P. aeruginosa H103 (wild type); experiment: microbe, parasite or virus in culture; settings: P. aeruginosa H103 (wild type)
How it was run: as §2

[21] = tested on: P. aeruginosa 9 (MDR); experiment: microbe, parasite or virus in culture; settings: P. aeruginosa 9 (MDR)
How it was run: as §2

[22] = tested on: P. aeruginosa H1030 (MDR); experiment: microbe, parasite or virus in culture; settings: P. aeruginosa H1030 (MDR)
How it was run: as §2

[23] = tested on: NIH 3T3 cells; experiment: Metabolic activity, MTS assay; format: cell-based, mouse; settings: NIH 3T3 cells, MTS assay, 3 hours
Protocol: NIH 3T3 mouse fibroblast cells were cultured in complete Dulbecco’s Modified Eagle’s Media. A peptoid solution plate (100 µL per well) was prepared by serial dilution of aqueous peptoid stock solutions in Hank’s balanced salt solution. A day-old cell monolayer was washed thoroughly with Hank’s balanced salt solution and replenished with 100 µL Hank’s balanced salt solution per well. Peptoid solutions were transferred onto the day-old cell monolayers, which contained approximately 5000 cells per well. […] The average of six replicate trials is reported.

[24] = tested on: erythrocytes; experiment: Hemolytic activity (HD10/HD50); format: cell-based
From the text: Table 1 Characteristics of antimicrobial peptoids, screened for activity against B. subtilis and E. coli bacterial strains. | column: HD10 / HD50

For H-(NLys-Npm-Npm)4-NH2 [Peptoid 1ach], the “MIC E. coli” value [1] was 12.5 µM, the “MIC B. subtilis” value [2] was 1.6 µM and the MIC [3] was 2 mg/L. For the same compound, the MIC [4] was 8 mg/L, the MIC [5] was 4 mg/L and the MIC [6] was 8 mg/L. For the same compound, the MIC [7] was 4 mg/L, the MIC [8] was 128 mg/L and the MIC [9] was 64 mg/L. It also gave an MIC [10] of 2 mg/L, an MIC [11] of 4 mg/L and an MIC [12] of 4 mg/L. For the same compound, the MIC [13] was 16 mg/L, the MIC [14] was 16 mg/L and the MIC [15] was 32 mg/L. For the same compound, the MIC [16] was 32 mg/L, the MIC [17] was 8 mg/L and the MIC [18] was 4 mg/L. It also gave an MIC [19] of 8 mg/L, an MIC [20] of 4 mg/L and an MIC [21] of 64 mg/L. For the same compound, the MIC [22] was 64 mg/L, the “ID50 (inhibitory dose, metabolic activity)” value [23] was 16 µM and the “HD10 (hemolytic activity)” value [24] was 183. The “HD50 (hemolytic activity)” value [24] was greater than 200.
“H-(NLys-Nspe-Nspe)3-NH2 [Peptoid 1_9mer]” was tested, and the “MIC E. coli” value [1] was 25 µM and the “MIC B. subtilis” value [2] was 1.6 µM.
In the case of `C[C@H](c1ccccc1)N(CC(N)=O)C(=O)CN(C(=O)CN(CCCCN)C(=O)CN(C(=O)CN(C(=O)CN(CCCCN)C(=O)CN(C(=O)CN(C(=O)CN(CCCCN)C(=O)CN(C(=O)CN(C(=O)CNCCCCN)[C@@H](C)c1ccccc1)[C@H](C)c1ccccc1)[C@@H](C)c1ccccc1)[C@H](C)c1ccccc1)[C@@H](C)c1ccccc1)[C@H](C)c1ccccc1)[C@@H](C)c1ccccc1` [1-Nrpe3,6,9,12, H-(NLys-Nspe-Nrpe)4-NH2], the “MIC E. coli” value [1] is reported as 6.3 µM (≈ 11.5 µg/mL), the “MIC B. subtilis” value [2] is reported as 1.6 µM (≈ 2.91 µg/mL) and the MIC [3] is reported as 1 mg/L (≈ 0.55 µM). For the same compound, the MIC [4] was 8 mg/L (≈ 4.4 µM), the MIC [5] was 2 mg/L (≈ 1.1 µM) and the MIC [6] was 4 mg/L (≈ 2.2 µM). It also gave an MIC [7] of 4 mg/L (≈ 2.2 µM), an MIC [8] of 8 mg/L (≈ 4.4 µM) and an MIC [9] of 16 mg/L (≈ 8.79 µM). The MIC [10] was 4 mg/L (≈ 2.2 µM), the MIC [11] was 4 mg/L (≈ 2.2 µM) and the MIC [12] was 4 mg/L (≈ 2.2 µM). The MIC [13] was 4 mg/L (≈ 2.2 µM), the MIC [14] was 4 mg/L (≈ 2.2 µM) and the MIC [15] was 4 mg/L (≈ 2.2 µM). For the same compound, the MIC [16] was 8 mg/L (≈ 4.4 µM), the MIC [17] was 8 mg/L (≈ 4.4 µM) and the MIC [18] was 4 mg/L (≈ 2.2 µM). For the same compound, the MIC [19] was 4 mg/L (≈ 2.2 µM), the MIC [20] was 8 mg/L (≈ 4.4 µM) and the MIC [21] was 32 mg/L (≈ 17.6 µM). For the same compound, the MIC [22] was 8 mg/L (≈ 4.4 µM), the “HD10 (hemolytic activity)” value ([24]; erythrocytes, first value of HD10 / HD50 cell) was 16 and the “HD50 (hemolytic activity)” value ([24]; erythrocytes, second value of HD10 / HD50 cell) was 67.

Reference: paper PMC4744035, “In Vivo, In Vitro, and In Silico Characterization of Peptoids as Antimicrobial Agents” (PLoS ONE, 2016)
